Laboratory results: patent US6090787A, “Antithrombotic agents” (Eli Lilly and Company, priority 1999, dated 2000)
Square brackets hold non-standard residues; d marks the D form. Peptide text beside a SMILES is read from it. dPip = O=C(O)[C@H]1CCCCN1; Sar = CNCC(=O)O

Assays:
[1] = test system: human plasma; experiment: Human plasma anticoagulation, thrombin time (TT); details: concentration required to double the thrombin time, linear extrapolation
Procedure: (§1) Dog plasma and rat plasma is obtained from conscious mixed-breed hounds (either sex, Hazelton-LRE, Kalamazoo, Mich., U.S.A.) or from anesthetized male Sprague-Dawley rats (Harlan Sprague-Dawley, Inc., Indianapolis, Ind., U.S.A.) by venipuncture into 3.8 percent citrate. Fibrinogen is prepared from in-date ACD human blood as the fraction I-2 according to previous procedures and specifications. Smith, Biochem. J., 185, 1-11 (1980); and Smith, et al., Biochemistry, 11, 2958-2967 (1972). Human fibrinogen is also purchased as 98 percent pure/plasmin free from American Diagnostica, Greenwich, Conn. Coagulation reagents ACTIN, Thromboplastin, and Human plasma are from Baxter Healthcare Corp., Dade Division, Miami, Fla. Bovine thrombin from Parke-Davis ([…], Mich.) is used for coagulation assays in plasma.
(§2) Coagulation assay procedures are as previously described. Smith, et al., Thrombosis Research, 50, 163-174 (1988). A CoAScreener coagulation instrument (American LABor, Inc.) is used for all coagulation assay measurements. The prothrombin time (PT) is measured by adding 0.05 mL saline and 0.05 mL Thromboplastin-C reagent to 0.05 mL test plasma. The activated partial thromboplastin time (APTT) is measured by incubation of 0.05 mL test plasma with 0.05 mL Actin reagent for 120 seconds followed by 0.05 mL CaCl2 (0.02 M). The thrombin time (TT) is measured by adding 0.05 mL saline and 0.05 mL thrombin (10 NIH units/mL) to 0.05 mL test plasma. The compounds of formula I are added to human or animal plasma over a wide range of concentrations to determine prolongation effects on the APTT, PT, and TT assays. Linear extrapolations are performed to estimate the concentrations required to double the clotting time for each assay.

[2] = Index of bioavailability (% Relative Activity from plasma TT AUC, oral vs i.v.); assay type: in vivo; details: dose-adjusted AUC of plasma TT time course, p.o. vs i.v. bolus
Procedure: Plasma thrombin time (TT) and activated partial thromboplastin time (APTT) are measured with a fibrometer. Blood is sampled from a jugular catheter and collected in syringe containing sodium citrate (3.8%, 1 part to 9 parts blood). […] Parke Davis) at 37° C. For APTT, plasma (0.1 mL) and APTT solution (0.1 mL, Organon Teknika) are incubated for 5 minutes (37° C.) and CaCl2 (0.01 mL, 0.025 M) is added to start coagulation. Assays are done in duplicate and averaged. A measure of bioactivity, plasma thrombin time (TT), served as a substitute for the assay of parent compound on the assumption that increments in TT resulted from thrombin inhibition by parent only. The time course of the effect of the thrombin inhibitor upon TT is determined after i.v. bolus administration to anesthetized rats and after oral treatment of fasted conscious rats. Due to limitations of blood volume and the number of points required to determine the time course from time of treatment to the time when the response returned to pretreatment values, two populations of rats are used. Each sample population represented alternating sequential time points. The average TT over the time course is used to calculate area under the curve (AUC). The index of bioavailability is calculated by the formula shown below and is expressed as percent relative activity. The area under the curve (AUC) of the plasma TT time course is determined and adjusted for the dose. This index of bioavailability is termed "% Relative Activity" and is calculated as [formula] Compound solutions are prepared fresh daily in normal saline and are injected as a bolus or are infused starting 15 minutes before and continuing throughout the experimental perturbation which is 15 minutes in the arteriovenous shunt model and 60 minutes in the FeCl3 model of arterial injury and in the spontaneous thombosis model. Bolus injection volume is 1 mL/kg for i.v., and 5 mL/kg for p.o. and infusion volume is 3 mL/hr.

[3] = test system: human plasma; experiment: Human plasma anticoagulation, activated partial thromboplastin time (APTT); details: concentration required to double the APTT, linear extrapolation
Procedure: as §1, §2

[4] = biological target: T1, factor Xa (Homo sapiens, UniProt P00742); experiment: Serine protease selectivity, Kass, factor Xa chromogenic assay; assay type: biochemical; details: apparent association constant
T1 construct: Human factors X, Xa, IXa, XIa, and XIIa are purchased from Enzyme Research Laboratories; purchased Enzyme Research Laboratories, South Bend, Ind
T1 sequence (P00742 235-488 limits assumed): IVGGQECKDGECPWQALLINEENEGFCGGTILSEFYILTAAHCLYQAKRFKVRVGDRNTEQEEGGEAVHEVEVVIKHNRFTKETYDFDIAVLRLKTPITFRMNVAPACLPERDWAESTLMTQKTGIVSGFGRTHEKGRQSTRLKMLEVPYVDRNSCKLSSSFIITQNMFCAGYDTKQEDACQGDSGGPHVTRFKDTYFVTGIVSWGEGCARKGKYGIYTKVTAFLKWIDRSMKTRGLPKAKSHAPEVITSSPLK
T1 sequence (P00742 41-179 partner limits assumed): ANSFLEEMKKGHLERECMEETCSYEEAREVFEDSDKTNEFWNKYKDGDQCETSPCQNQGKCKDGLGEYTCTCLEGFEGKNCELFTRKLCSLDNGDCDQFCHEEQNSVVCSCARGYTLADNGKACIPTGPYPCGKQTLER
Procedure: By substantially following the procedures described above for human thrombin, and using other human blood coagulation system serine proteases and proteases of the fibrinolytic system with the appropriate chromogenic substrates, identified below, selectivity of the compounds of the present invention with respect to the coagulation factor serine proteases and with respect to the fibrinolytic system serine proteases are evaluated as well as their substantial lack of interference with serine proteases of the fibrinolytic system. Thrombin inhibitors preferably should spare fibrinolysis induced by urokinase, tissue plasminogen activator (t-PA) and streptokinase. This would be important to the therapeutic use of such agents as an adjunct to streptokinase, t-PA or urokinase thrombolytic therapy and to the use of such agents as an endogenous fibrinolysis-sparing (with respect to t-PA and urokinase) antithrombotic agent. In addition to the lack of interference with the amidase activity of the fibrinolytic proteases, such fibrinolytic system sparing can be studied by the use of human plasma clots and their lysis by the respective fibrinolytic plasminogen activators.
Human factors X, Xa, IXa, XIa, and XIIa are purchased from Enzyme Research Laboratories, South Bend, Ind.; human urokinase from Leo Pharmaceuticals, Denmark; and recombinant activated Protein C (aPC) is prepared at Eli Lilly and Co. substantially according to U.S. Pat. No. 4,981,952 incorporated by reference herein in its entirety. Chromogenic substrates: N--Benzoyl--Ile--Glu--Gly--Arg--p--nitroanilide (for factor Xa); N--Cbz--D--Arg--Gly--Arg--p--nitroanilide (for factor IXa assay as the factor Xa substrate); Pyroglutamyl--Pro--Arg--p--nitroanilide (for Factor XIa and for aPC); H--D--Pro--Phe--Arg--p--nitroanilide (for factor XIIa); and Pyroglutamyl--Gly--Arg--p--nitroanilide (for urokinase); are purchased from KabiVitrum, Stockholm, Sweden, or from Midwest Biotech, Fishers, Indiana. Bovine trypsin is purchased from Worthington Biochemicals, Freehold, N.J., and human plasma kallikrein from Kabi Vitrum, Stockholm, Sweden. Chromogenic substrate H--D--Pro--Phe--Arg--p--nitroanilide for plasma kallikrein is purchased from Kabi Vitrum, Stockholm, Sweden. N--Benzoyl--Phe--Val--Arg--p--nitroanilide, the substrate for human thrombin and for trypsin, is synthesized according to procedures described above for the compounds of the present invention, using known methods of peptide coupling from commercially available reactants or purchased from Midwest Biotech, Fishers, Ind.

[5] = test system: human plasma; experiment: Human plasma anticoagulation, prothrombin time (PT); details: concentration required to double the PT, linear extrapolation
Procedure: as §1, §2

Compound	Human Plasma Anticoagulation 2 × Clotting time TT [1] [ng/mL]	% oral/i.v. activity (Rat) [2] [%]	Human Plasma Anticoagulation 2 × Clotting time APTT [3]	Enzyme Kass Xa [4] [L/mol × 10^6]	Human Plasma Anticoagulation 2 × Clotting time PT [5]
CN(CC(=O)N[C@H](C=O)CCCNC(=N)N)C(=O)[C@H]1CCCCN1.Cl.Cl [Example 1, D-homoprolyl-N-methylglycyl-L-argininal dihydrochloride] (H-[dPip]-[Sar]-Arg-aldehyde)	160	37	2,800 ng/mL	0.13	4,800 ng/mL
CC(C)CCN(CC(=O)N[C@H](C=O)CCCN=C(N)N)C(=O)[C@H]1CCCCN1.Cl.Cl [Example 6, D--hPro--N(isoamyl)Gly--ArgH.2HCl]	170	22	3,200 ng/mL	0.071	2,600 ng/mL
Cl.Cl.N=C(N)NCCC[C@@H](C=O)NC(=O)CN(CCc1ccccc1)C(=O)[C@H]1CCCCN1 [Example 8, D-homoprolyl-N-(2-phenylethyl)glycyl-L-argininal dihydrochloride]	64	17	6,600 ng/mL	4.4	2,000 ng/mL
